The values below come from patent US12285397B2, “Use of (s)-3-amino-4-(difluoromethylenyl) cyclopent-1-ene-1-carboxylic acid and related compounds, (1S,3S)-3-amino-4-(difluoromethylidene) cyclopentane-1-carboxylic acid and vigabatrin in the treatment of developmental disorders” (Ovid Therapeutics Inc., priority 2018, dated 2025).

Structures are written as SMILES. Read-outs that look alike come from different tables or passages of the source.

The subject of data set [1] is Fmr1 KO1 transgenic mice in an FVB background. Put plainly: Audiogenic seizures (AGS), Fmr1 KO1 mice in FVB background. The class given is in vivo, mouse. To be noted: tested 20 minutes after injection, audio stimulus 60 seconds at 124 db. As to the method: 4. Audiogenic Seizures (AGS) are reflex seizures generated by loud noises in genetically predisposed mice. The Fmr1 KO1 mice display audiogenic seizures depending on age and background strain, the Fmr1 KO1 mouse on the FVB background is characterized by an increased AGS susceptibility at all ages and is considered a good animal model for epilepsy. The effect of (S)-3-amino-4-(difluoromethylenyl) cyclopent-1-ene-1-carboxylic acid was tested on AGS Fmr1 KO1 transgenic mice in an FVB background. Observable criteria are: 1. normal behavior, 2. wild running, 3. seizure, and 4. respiratory arrest.
(S)-3-amino-4-(difluoromethylenyl) cyclopent-1-ene-1-carboxylic acid was administered to Fmr1 KO1 mice, males, age 2 months in the following amounts: 0.01 mg/kg, 0.05 mg/kg, and 0.1 mg/kg. Positive controls were administered 2-Methyl-6-(phenylethynyl)pyridine (MPEP), a mGluR5 antagonist, 30 mg/kg by i.p. and tested 20 minutes after injection. Audio stimulus was administered continuously for 60 seconds at 124 db.

The next data set has as its system Fmr1 KO1 mice. As to the kind of experiment: Open field hyperactivity (locomotor activity), Fmr1 KO1 mice. The class given is in vivo, mouse. Conditions: 0.1 mg/Kg. The source says: (§1) Mutant fmr1 knockout (KO) mice recapitulate the Fragile X syndrome (FXS) phenotype and represent a preclinical model for assessment of putative drug treatments. In this study three different mice models of FXS were used: Fmr1 KO1 is the original Fmr1 knockout animal that carries an insertion in exon 5. See, e.g., Bakker C E, et al., The Dutch-Belgian Fragile X Consortium, Fmr1 knockout mice: A model to study fragile X mental retardation. Cell. 1994; 78:23-33 It is a protein null, although Fmr1 mRNA is still present. It is backcrossed to the C57/B16 strain. Subsequently, these mice were bred into different background strains, such as the FVB inbred mouse strain. Fmr1 KO2 is a null allele at Fmr1 generated by deletion of the promoter and first exon of Fmr1. See, Mientjes, E J et al., The generation of a conditional Fmr1 knock out mouse model to study Fmrp function in vivo. Neurobiology of Disease (2006) 21(3): 549-555. It is both protein and mRNA null. Backcrossed to the C57/B16 strain. Genotyping was accomplished using TransnetXY Automated Genotyping (http://www.transnetyx.com/). TRANSNETYX, INC., 8110 Cordova Rd. Suite 119, Cordova, TN 38016, USA.
(§2) The mice were housed in plastic cages (35×30×12 cm), 5 in each and habituated to the animal facilities for at least a week before test. The room temperature (21±2° C.), relative humidity (55±5%), a 12-h light-dark cycle (lights on 7 a.m.-7 p.m.) and air exchange (16 times per h) were automatically controlled. The animals had free access to commercial food pellets and water. Testing was conducted during the light phase. Testing was conducted on Fmr1 knockout mice and their wild-type (WT) littermates. Ten mice per treatment group, 14 weeks of age, were used for behavioral experiments. Experiments were conducted in line with the requirements of the UK Animals (Scientific Procedures) Act, 1986.
(§3) Oral dosing was performed by using 1.5-in. curved, 20-gauge, stainless steel feeding needles with a 2.25-mm ball (Braintree Scientific, Braintree, MA). Each gavage treatment was given in 0.5% methyl cellulose (Methyl Cellulose M0512, Sigma-Aldrich, St Louis, MO) used as vehicle with or without treatment compounds. The same veterinarian, blinded to the treatment groups, performed the procedure, and documented animal reactions to oral gavage. Reactions considered to indicate stress were defined as excessive struggling during gavage or abnormal behavior after gavage (labored breathing, frozen stance, exaggerated jumping, shuddering, and hunched posture).
(§4) For experiments all mice were tested once in the same apparatus. Prior to testing, mice not in the study were placed in the apparatus for some minutes before the experiment. The apparatus was then cleaned with moist and dry tissues before testing each mouse. The aim was to create a low but constant background mouse odor for all experimental subjects. All experiments were conducted with the experimenters blind to genotype and drug treatment during all testing and data analysis. Separate investigators prepared and coded dosing solutions, allocated the mice to the study treatment groups, dosed the animals, and collected the behavioral data. Data were analyzed by one-way analysis of variance (ANOVA) followed by post-hoc comparisons where appropriate using Tukey's Multiple Comparison Test. Data are represented as the mean and standard error of the mean (SEM).
1. […]

The subject of a further data set is Fmr1 KO2 mice. Put plainly: Open field hyperactivity (locomotor activity), Fmr1 KO2 mice. It counts as in vivo, mouse. Conditions: 0.1 mg/Kg.
Source text: as §1, §2, §3, §4
1. […]

The conditions of data set [2]: cited from earlier work; for tmax: single 37-50 mg/kg dose of an oral solution.
The conditions of data set [3]: cited from earlier work.
The mark [4] stands for this setting: MPEP (positive control) 30 mg/kg i.p.

For `Cc1cccc(C#Cc2ccccc2)n1` [MPEP, 2-Methyl-6-(phenylethynyl)pyridine, reference compound], in data set [1] (30 mg/kg i.p.), the Seizure was 0/10 and the Wild running is reported as 0/10. Further, in data set [1] (setting [4]), the Incidence turned out to be 0% and the Respiratory arrest was 0/10.

For the compound `N[C@H]1C=C(C(=O)O)CC1=C(F)F` [(S)-3-amino-4-(difluoromethylenyl)cyclopent-1-ene-1-carboxylic acid], the “Effect on open field hyperactivity (FIG. 7)” value with Fmr1 KO1 mice is on record as “reversed hyperactivity”. In addition, the “Effect on open field hyperactivity (FIG. 1)” value in the data set with Fmr1 KO2 mice is on record as “significantly reduced”.

On to `C=CC(N)CCC(=O)O` (racemic) [vigabatrin, (RS)-4-aminohex-5-enoic acid], for which the “cerebrospinal concentrations as share of the plasma concentration” value in data set [2] (6 h after a single oral dose) is reported as 10%. For the same compound, the values for the terminal half-life in data set [2] (adults), in data set [2] (children (10 years-16 years)) and in data set [2] (infants (5 months-2 years)) were about 10.5 h, about 9.5 h and “about 5.7 hours”, respectively. Further, the “area under plasma concentration-time curves versus dose” value in data set [2] (in vivo) was “dose-linear pharmacokinetics”. The protein binding result in data set [2] (in vivo) is “lack of protein binding”. Besides, the tmax result is recorded as “about 1 hour” in data set [2] (children); “approximately 2.5 hours” in data set [2] (neonates and infants).

Regarding `N[C@H]1C[C@@H](C(=O)O)CC1=C(F)F` [(1S,3S)-3-amino-4-(difluoromethylidene)cyclopentane-1-carboxylic acid], the “increase in AUCs with dose” value in data set [3] (in the dose range 5 mg-500 mg) was “greater than proportional increase”. In addition, the “Cmax increase with dose” value in data set [3] (over a range of 5 mg-500 mg) is reported as “dose proportional”.
